In patent publication US20070078263A1, “BIARYL SUBSTITUTED HETEROCYCLE INHIBITORS OF LTA4H FOR TREATING INFLAMMATION” (deCODE Chemistry, Inc., priority 2005, published 2007):
Structures can show the parent of a compound that is named as a salt.

Each molecule was assayed against T1, human LTA4 hydrolase (Homo sapiens, UniProt P09960) (assay: In vitro assay testing inhibitory activity against purified recombinant human LTA4 hydrolase (LTB4 formed, LC-MS/MS)). Conditions: recombinant human LTA4 hydrolase 200 nM, LTA4 2 μM; read-out: AvgIC50.
T1 construct: A human LTA4 hydrolase full-length cDNA clone (NM 000895) was purchased; His tag (6xHis of vector pDEST17); made in house; host or cells: Escherichia coli BL21-AI
T1 sequence (P09960 1-611): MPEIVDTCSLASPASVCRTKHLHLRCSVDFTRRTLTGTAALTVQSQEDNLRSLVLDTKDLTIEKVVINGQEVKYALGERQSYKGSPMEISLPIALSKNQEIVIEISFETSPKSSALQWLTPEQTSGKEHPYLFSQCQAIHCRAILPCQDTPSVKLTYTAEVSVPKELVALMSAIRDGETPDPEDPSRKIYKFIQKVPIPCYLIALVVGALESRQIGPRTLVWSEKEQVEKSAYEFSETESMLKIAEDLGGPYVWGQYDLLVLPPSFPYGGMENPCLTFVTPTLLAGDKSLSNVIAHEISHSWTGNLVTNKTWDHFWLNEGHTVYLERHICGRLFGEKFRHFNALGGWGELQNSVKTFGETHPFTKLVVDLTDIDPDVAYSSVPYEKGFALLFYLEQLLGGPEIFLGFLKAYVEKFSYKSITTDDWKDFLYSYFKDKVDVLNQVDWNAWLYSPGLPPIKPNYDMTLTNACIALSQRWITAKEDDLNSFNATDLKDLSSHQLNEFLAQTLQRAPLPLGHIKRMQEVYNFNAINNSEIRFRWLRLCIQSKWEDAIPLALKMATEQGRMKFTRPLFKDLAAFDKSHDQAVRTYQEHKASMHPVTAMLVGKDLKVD
Assay type: biochemical
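Note: 200 nM enzyme preincubated 10 min at room temperature with serial inhibitor dilutions in pH 8.0 Tris buffer with BSA and 10% DMSO, then 2 µM LTA4 added.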
Description: (1) In vitro assay testing inhibitory activity against purified recombinant human LTA4 hydroase. […] The gene was amplified by polymerase chain reaction and transferred via pDONR201 into the bacterial expression vector pDEST17 by recombination (both plasmids from Invitrogen, Carlsbad, Calif.). The resulting construct was transformed into Escherichia coli BL21-AI (Invitrogen), and expression was induced by chemical induction with arabinose. The recombinant enzyme was purified by chromatography on an FPLC system (Amersham Biosciences, Uppsala, Sweden) using immobilized metal affinity chromatography (Ni-NTA Superflow, Qiagen, Hilden, Germany) and anion exchange chromatography (MonoQ HR 10/10, Amersham Biosciences).
The compounds of the invention were incubated in a series of dilutions with 200 nM of recombinant enzyme in assay buffer (100 mM Tris-HCl, 100 mM NaCl, 5 mg/ml fatty-acid free BSA, 10% DMSO, pH 8.0) for 10 min at room temperature to allow binding between LTA4 hydrolase and the inhibitors. LTA4 was prepared by alkaline hydrolysis of LTA4 methyl ester (Biomol, Plymouth Meeting, Pa., or Cayman Chemicals, Ann Arbor, Mich.). A solution of 10 μg of the ester was dried under a nitrogen stream and redissolved in 60 μl of a solution of 80% acetone and 20% 0.25 M NaOH. After incubation for 40 min at room temperature the resulting approximately 500 μM tock of LTA4 was kept at −80° C. for no more than a few days prior to use.
Immediately before the assay, LTA4 was diluted to a concentration of 10 μM in assay buffer (without DMSO) and added to the reaction mixture to a final concentration of 2 μM to initiate the enzyme reaction. […] The samples were then kept at 4° C. overnight to complete protein precipitation and centrifuged for 15 min at 1800 g.

| SMILES | IC50 [µM] |
| --- | --- |
| FC(F)(F)c1cccc(COc2ccc(OC[C@H]3CCCN3)cc2)c1 [Example 96, (R)-2-[4-(3-Trifluoromethyl-benzyloxy)-phenoxymethyl]-pyrrolidine Hydrogen chloride salt] | 5 to 20 |
| COc1cccc(COc2ccc(OC[C@H]3CCCN3)cc2)c1 [Example 97, (R)-2-[4-(3-Methoxy-benzyloxy)-phenoxymethyl]-pyrrolidine Hydrogen chloride salt] | 20 to 100 |
| Clc1cc2c(cc1COc1ccc(OC[C@H]3CCCN3)cc1)OCO2 [Example 98, (R)-2-[4-(6-Chloro-benzo[1,3]dioxol-5-ylmethoxy)phenoxymethyl]pyrrolidine Hydrogen chloride salt] | 20 to 100 |
| Clc1ccc2nc(Oc3ccc(OC[C@H]4CCCN4)cc3)sc2c1 [Example 101, (R)-2-[4-(6-Chloro-benzothiazol-2-yloxy)-phenoxymethyl]-pyrrolidine-Hydrogen chloride salt] | < 5 |
| COc1ccc2nc(Oc3ccc(OC[C@H]4CCCN4)cc3)sc2c1 [Example 102, (R)-2-[4-(6-Methoxy-benzothiazol-2-yloxy)-phenoxymethyl]-pyrrolidine-Hydrogen chloride salt] | < 5 |
| O=C(O)CCCN1CCC[C@@H]1COc1ccc(Cc2ccc(-c3ccco3)cc2)cc1 [Example 114, 4-{(R)-2-[4-(4-furan-2-yl-benzyl)-phenoxymethyl]-pyrrolidin-1-yl}-butyric acid hydrogen chloride salt] | < 5 |
| Cc1ccc(-c2ccc(Cc3ccc(OC[C@H]4CCCN4CCCC(=O)O)cc3)cc2)s1 [Example 115, (R)-2-{4-[4-(5-methyl-thiophen-2-yl)-benzyl]-phenoxymethyl}-pyrrolidin-1-yl}-butyric acid hydrogen chloride salt] | < 5 |
| O=C(O)CCCN1CCC[C@H]1COc1ccc(Cc2ccc(-c3cccs3)cc2)cc1 [Example 118] | < 5 |
| c1cc(OC[C@@H]2CCCN2)ccc1Cc1ccc(N2CCC2)cc1 [Example 124, (S)-2-[4-(4-Azetidin-1-yl-benzyl)-phenoxymethyl]-pyrrolidine hydrogen chloride salt] | 5 to 20 |
| c1cc(-c2ccc(Cc3ccc(OC[C@H]4CCCN4)cc3)cc2)ccn1 [Example 125, 4-{4-[4-((R)-1-Pyrrolidin-2-ylmethoxy)-benzyl]-phenyl}-pyridine hydrogen chloride salt] | 5 to 20 |
| c1cncc(-c2ccc(Cc3ccc(OC[C@H]4CCCN4)cc3)cc2)c1 [Example 126, 3-{4-[4-((R)-1-Pyrrolidin-2-ylmethoxy)-benzyl]-phenyl}-pyridine] | 5 to 20 |
| O=C(c1ccc(I)cc1)c1ccc(OC[C@H]2CCCN2)cc1 [Example 127, (4-Iodo-phenyl)-[4-((R)-1-pyrrolidin-2-ylmethoxy)-phenyl]-methanone] | 5 to 20 |
| OC(c1ccc(OC[C@H]2CCCN2)cc1)c1ccc(-c2ccsc2)cc1 (stereo partly drawn) [Example 129, [4-((R)-1-Pyrrolidin-2-ylmethoxy)-phenyl]-(4-thiophen-3-yl-phenyl)-methanol] | 5 to 20 |
| c1csc(-c2ccc(Oc3ccc(OC[C@H]4CCCN4)cc3)cc2)c1 [Example 131, (R)-2-[4-(4-Thiophen-2-yl-phenoxy)-phenoxymethyl]-pyrrolidine-1-hydrogen chloride salt] | 5 to 20 |
| c1ncc(-c2ccc(Oc3ccc(OC[C@H]4CCCN4)cc3)cc2)o1 [Example 132, 5-{4-[4((R)-1-Pyrrolidin-2-ylmethoxy)-phenoxy]-phenyl}-oxazole, hydrogen chloride salt] | 5 to 20 |
| c1cc(Oc2ccc(OC[C@H]3CCCN3)cc2)ccn1 [Example 144, 4-[4-((R)-1-Pyrrolidin-2-ylmethoxy)-phenoxy]-pyridine] | < 5 |
| c1coc(-c2ccc(Oc3ccc(OC[C@H]4CCCN4)cc3)cc2)n1 [Example 148, hydrochloride salt] | < 5 |
| c1csc(-c2ccc(Cc3ccc(OC[C@@H]4CCCN4)cc3)cc2)n1 [Example 150, 2-{4-[4-((S)-1-Pyrrolidin-2-ylmethoxy)-benzyl]-phenyl}-thiazole hydrochloride salt] | < 5 |

The remaining lines, values ahead:

| IC50 [µM] | SMILES |
| --- | --- |
| < 5 | Fc1ccc(COc2ccc(OC[C@H]3CCCN3)cc2)cc1 [Example 92, (R)-2-[4-(4-Fluoro-benzyloxy)-phenoxymethyl]-pyrrolidine Hydrogen chloride salt] |
| < 5 | Fc1ccc(COc2ccc(OC[C@H]3CCCN3)cc2)cc1F [Example 93, (R)-2-[4-(3,4-Difluoro-benzyloxy)-phenoxymethyl]-pyrrolidine Hydrogen chloride salt] |
| < 5 | Clc1ccc(COc2ccc(OC[C@H]3CCCN3)cc2)cc1 [Example 94, (R)-2-[4-(4-Chloro-benzyloxy)-phenoxymethyl]-pyrrolidine Hydrogen chloride salt] |
| < 5 | FC(F)(F)c1ccc(COc2ccc(OC[C@H]3CCCN3)cc2)cc1 [Example 95, (R)-2-[4-(4-Trifluoromethyl-benzyloxy)-phenoxymethyl]-pyrrolidine Hydrogen chloride salt] |
| < 5 | c1ccc2oc(Oc3ccc(OC[C@H]4CCCN4)cc3)nc2c1 [Example 99, (R)-2-[4-(Benzooxazol-2-yloxy)-phenoxymethyl]-pyrrolidine Hydrogen chloride salt] |
| < 5 | c1ccc2[nH]c(Oc3ccc(OC[C@H]4CCCN4)cc3)nc2c1 [Example 103, 2-[4-((R)-1-Pyrrolidin-2-ylmethoxy)-phenoxy]-1H-benzoimidazole Hydrogen chloride salt] |
| < 5 | O=C(O)CCCN1CCC[C@@H]1COc1ccc(Cc2ccc(-c3ccc(Cl)s3)cc2)cc1 [Example 116, (R)-2-{4-[4-(5-chloro-thiophen-2-yl)-benzyl]-phenoxymethyl}-pyrrolidin-1-yl}-butyric hydrogen chloride salt] |
| < 5 | Ic1ccc(Cc2ccc(OC[C@@H]3CCCN3)cc2)cc1 [Example 121, (S)-2-[4-(4-Iodo-benzyl)-phenoxymethyl]-pyrrolidine] |
| < 5 | N#CC1(c2ccc(Oc3ccc(OC[C@H]4CCCN4)cc3)cc2)CC1 [Example 136, 1-{4-[4-((R)-1-Pyrrolidin-2-ylmethoxy)-phenoxy]-phenyl}-cyclopropanecarbonitrile hydrogen chloride salt] |
| < 5 | C[C@@H](NC(=O)CCCN1CCC[C@H]1COc1ccc(Oc2ccc(Cl)cc2)cc1)c1ccccc1 [Example 139, 4-{(S)-2-[4-(4-Chloro-phenoxy)-phenoxymethyl]-pyrrolidin-1-yl}-N—[(R)-1-phenylethyl]-butyramide] |
| < 5 | c1ccc(Cc2ccc(OC[C@H]3CCCN3)nc2)cc1 [Example 141, 5-Benzyl-2-((R)-1-pyrrolidin-2-ylmethoxy)-pyridinehydrochloride salt] |
| < 5 | c1ccc(Cc2ccc(OC[C@@H]3CCCN3)nc2)cc1 [Example 142, 5-Benzyl-2-((S)-1-pyrrolidin-2-ylmethoxy)-pyridine hydrochloride salt] |
| < 5 | O=C(O)CCN1CCC[C@@H]1COc1ccc(Oc2ccncc2)cc1 [Example 145, 3-{(R)-2-[4-(Pyridin-4-yloxy)-phenoxymethyl]-pyrrolidin-1-yl}-propionic acid] |
| < 5 | c1csc(-c2ccc(Cc3ccc(OC[C@H]4CCCN4)cc3)cc2)n1 [Example 149, 2-{4-[4-((R)-1-Pyrrolidin-2-ylmethoxy)-benzyl]-phenyl}-thiazole hydrochloride salt] |
